# Experimental data as given in patent US20230084839A1, “ACTIVE AGENTS AGAINST CORONAVIRUS INFECTIONS AND DISEASES CAUSED THEREBY” (Eberhard Karls Universität Tübigen Medizinische Fakultät, priority 2020, published 2023).
# Key:
# SARS-CoV-2 [1] = type: cell-based; details: 48 hours post-infection, DAPI+ cell count
# SARS-CoV-2 [2] = type: cell-based; details: Calu3 cells; for reduction of the cytopathic effect caused by viral infection: Data series 1, SARS-CoV-2, 10 and 1 μM, compared with mock and infected; for inhibitory effects on the virus-induced cytopathic effect: Data series 2, concentrations 10 μM-0.3125 μM
Compound,concentration from which positive effects on the total number or survival of Calu3 cells after SARS-CoV-2 infection occur (SARS-CoV-2 [1]),reduction of the cytopathic effect caused by viral infection (SARS-CoV-2 [2]),inhibitory effects on the virus-induced cytopathic effect (SARS-CoV-2 [2]),positive effects on the total number or survival of Calu3 cells after SARS-CoV-2 infection (SARS-CoV-2 [1])
COc1cc2c(cc1-c1c(C)noc1C)ncc1[nH]c(=O)n([C@H](C)c3ccccn3)c12 [IBET151],approximately 20 nM,significant reduction,still evident even at the lowest concentrations,
"CN(C)C(=O)c1cc2cnc(Nc3ccc(N4CCNCC4)cn3)nc2n1C1CCCC1 [ribociclib, Ribociclib]",,no inhibitory effects,,
"CCN(CCO)CCCC(C)Nc1ccnc2cc(Cl)ccc12 (stereo not drawn) [hydroxychloroquine, Hydroxychloroquine]",,no inhibitory effects,,not observed
Cc1sc2c(c1C)C(c1ccc(Cl)cc1)=N[C@@H](CC(N)=O)c1nnc(C)n1-2 [CPI203],approximately 20 nM,significant reduction,still evident even at the lowest concentrations,
